Laboratory results: PubChem BioAssay AID977613 (Broad Institute, 2014)
Active and inactive are the calls of the source. No rule for the calls is given here.

Tested on: Broad 7084-01 inhibitor HTS, set 2
Assay: inhibitors in Broad screen 7084-01, set 2 (AID 977613);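 also: host cells are infected with parasite promastigotes that become internalized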

CC(=O)N1[C@H](CO)[C@@H](c2ccccc2)C12CN(C(=O)Cc1ccccc1)C2
active concentration: > 10 µM (inactive)

CS(=O)(=O)N1[C@H](CO)[C@@H](c2ccccc2)C12CN(Cc1ccccn1)C2
active concentration: > 10 µM (inactive)

COc1ccc2c3c([nH]c2c1)[C@H](CO)N(C(=O)C1CCCCC1)CC31CCN(C)CC1
active concentration: > 10 µM (inactive)

OC[C@H]1[C@H]2c3ccccc3NC[C@H]2N1Cc1ccccc1Cl
active concentration: > 10 µM (inactive)

O=C(C[C@H]1CC[C@@H]2[C@H](COC[C@@H](O)CN2CC2CC2)O1)NCC1CC1
active concentration: > 10 µM (inactive)

O=C(C[C@@H]1CC[C@@H]2[C@H](COC[C@@H](O)CN2C(=O)Cc2ccccc2)O1)NC1CCCC1
active concentration: > 10 µM (inactive)

Cn1cnc(CCNC(=O)C[C@@H]2CC[C@@H]3[C@H](COC[C@@H](O)CN3C(=O)C3CC3)O2)c1
active concentration: > 10 µM (inactive)

O=C(C[C@@H]1CC[C@H]2[C@@H](COC[C@H](O)CN2C(=O)Nc2cc(Cl)cc(Cl)c2)O1)NCC1CCCCC1
active concentration: > 10 µM (inactive)

O=C(C[C@H]1CC[C@H]2[C@@H](COC[C@@H](O)CN2CCc2ccccc2)O1)NCc1ccc(F)cc1
active concentration: > 10 µM (inactive)

O=C(C[C@@H]1CC[C@@H]2[C@H](COC[C@H](O)CN2C(=O)Nc2cc(Cl)cc(Cl)c2)O1)NCC1CCCCC1
active concentration: > 10 µM (inactive)

C/C=C/c1ccc([C@@H]2[C@@H](CO)N3C(=O)CN(S(=O)(=O)c4ccccc4)C[C@@H]23)cc1
active concentration: > 10 µM (inactive)

O=C(C[C@H]1CC[C@@H]2[C@H](COC[C@H](O)CN2CCC(F)(F)F)O1)NCC1CC1
active concentration: > 10 µM (inactive)

O=C([C@@H]1N[C@@H]2c3ccc(-c4ccccc4F)c(=O)n3C[C@@H]2[C@H]1CO)N1CCc2ccccc2C1
active concentration: > 10 µM (inactive)

C[C@@H](O)C#Cc1ccc([C@@H]2[C@H](CO)N3CCCCN(C(=O)c4ccc5c(c4)OCO5)C[C@@H]23)cc1
active concentration: > 10 µM (inactive)

O=C(c1cnccn1)N1CC(=O)N2[C@@H](CO)[C@H](c3ccc(C#CC4CC4)cc3)[C@@H]2C1
active concentration: > 10 µM (inactive)

COc1ccc(NC(=O)N2CC(=O)N3[C@H](CO)[C@H](c4ccc(Br)cc4)[C@@H]3C2)cc1
active concentration: > 10 µM (inactive)

COc1ccccc1C(=O)Nc1ccc2c(c1)C(=O)N(C)[C@@H]1CC[C@@H](CC(=O)NCCc3ccncc3)O[C@H]1CO2
active concentration: > 10 µM (inactive)

O=C(C[C@@H]1CC[C@H]2[C@@H](COC[C@H](O)CN2Cc2cccc(F)c2)O1)NCc1cccc(F)c1
active concentration: > 10 µM (inactive)

O=C(C1CCC1)N1CC2(C1)[C@H](c1ccccc1)[C@H](CO)N2Cc1cccnc1
active concentration: > 10 µM (inactive)

Cc1noc(C)c1NC(=O)N1C[C@H](O)COC[C@H]2O[C@H](CC(=O)NCC3CCCCC3)CC[C@@H]21
active concentration: > 10 µM (inactive)

COc1ccccc1CN1CC[C@@H]2[C@@H](CO)Nc3ccc(C#Cc4ccccc4)cc3[C@@H]21
active concentration: > 10 µM (inactive)

COc1cccc(NC(=O)Nc2ccc3c(c2)C(=O)N(C)[C@H]2CC[C@H](CC(=O)NCCc4ccccc4)O[C@@H]2CO3)c1
active concentration: > 10 µM (inactive)

O=C(C1CCC1)N1CC2(C1)[C@@H](c1ccccc1)[C@@H](CO)N2C(=O)c1ccccn1
active concentration: < 10 µM

COc1cccc(CN2[C@H](CO)[C@@H](c3ccccc3)C23CN(Cc2ccccc2OC)C3)c1
active concentration: > 10 µM (inactive)

CCCN1[C@@H]2c3ccc(-c4cncnc4)c(=O)n3C[C@@H]2[C@@H](CO)[C@@H]1C(=O)OC
active concentration: > 10 µM (inactive)

CC(C)C#Cc1ccc([C@@H]2[C@@H](CO)N3C(=O)CN(C(=O)c4ccc5c(c4)OCO5)C[C@H]23)cc1
active concentration: > 10 µM (inactive)

COc1ccc2c3c([nH]c2c1)[C@@H](CO)N(C(=O)Nc1ccc(F)cc1)CC31CN(Cc2cc(-c3ccccc3)on2)C1
active concentration: > 10 µM (inactive)

N#C[C@@H]1[C@@H](c2ccccc2-c2cccc(F)c2)[C@@H](CO)N1C(=O)CN1CCOCC1
active concentration: > 10 µM (inactive)

CCN1CC(=O)N2[C@H](CO)[C@H](c3ccc(Br)cc3)[C@@H]2C1
active concentration: > 10 µM (inactive)

O=C(Nc1ccc(F)cc1)N1CC(=O)N2[C@H](CO)[C@H](c3ccc(C#Cc4cccnc4)cc3)[C@H]2C1
active concentration: > 10 µM (inactive)

COc1ccc(C#Cc2ccc([C@H]3[C@@H](CO)N4C(=O)CN(C(=O)c5ccc(F)cc5)C[C@H]34)cc2)cc1
active concentration: > 10 µM (inactive)

O=C(C[C@H]1CC[C@@H]2[C@H](COC[C@@H](O)CN2Cc2cc(F)cc(F)c2)O1)NC1CCC1
active concentration: > 10 µM (inactive)

CC=Cc1ccc2n(c1=O)C[C@H]1[C@H](CO)[C@@H](C(=O)NCCC)N(Cc3cocn3)[C@@H]21 (mixture of isomers)
active concentration: > 10 µM (inactive)

O=C(C[C@H]1CC[C@H]2[C@@H](COC[C@@H](O)CN2C(=O)c2ccccc2)O1)Nc1ccc(-c2ccccc2)cc1
active concentration: > 10 µM (inactive)

CCS(=O)(=O)N1CC(=O)N2[C@@H](CO)[C@@H](c3ccc(C#CC4CCCCC4)cc3)[C@@H]2C1
active concentration: > 10 µM (inactive)

COc1cccc(-c2ccc3c(c2)[C@H]2[C@H](CCN2S(=O)(=O)c2ccccc2C)[C@@H](CO)N3)c1
active concentration: > 10 µM (inactive)

CN(C)C(=O)C[C@@H]1CC[C@H]2[C@@H](COC[C@H](O)CN2C(=O)C2CC2)O1
active concentration: > 10 µM (inactive)

CCCNC(=O)N1[C@H](CO)[C@H](c2ccccc2-c2cccc(OC)c2)[C@@H]1C#N
active concentration: > 10 µM (inactive)

CCC(=O)N1[C@@H](CO)[C@@H]2c3ccccc3N(S(=O)(=O)c3ccccc3C)C[C@@H]21
active concentration: > 10 µM (inactive)

O=C(Nc1ccccc1)N1CC(=O)N2[C@H](CO)[C@@H](c3ccc(C#CC4CCCCC4)cc3)[C@@H]2C1
active concentration: > 10 µM (inactive)

CCCN1[C@H](C(=O)NCCCN2CCOCC2)[C@@H](CO)[C@@H]2Cn3c(ccc(-c4ccncc4)c3=O)[C@@H]21
active concentration: > 10 µM (inactive)

O=C(C1CCCCC1)N1C[C@@H]2[C@H](c3ccccc31)[C@H](CO)N2C(=O)Cc1ccccn1
active concentration: > 10 µM (inactive)

COc1cccc(CN2CC3(CN(C)C3)c3c([nH]c4cc(OC)ccc34)[C@H]2CO)c1
active concentration: > 10 µM (inactive)

OC[C@@H]1[C@@H](c2ccc(C#CC3(O)CCCC3)cc2)[C@@H]2CN(Cc3cncnc3)CCCCN12
active concentration: > 10 µM (inactive)

O=C(C1CC1)N1CC2(C1)[C@H](c1ccccc1)[C@H](CO)N2Cc1nccs1
active concentration: > 10 µM (inactive)

CN(C)C(=O)C[C@@H]1CC[C@H]2[C@H](COc3ccc(NC(=O)c4ccc(F)cc4)cc3C(=O)N2C)O1
active concentration: > 10 µM (inactive)

COc1cccc(NC(=O)N2CC(=O)N3[C@@H](CO)[C@H](c4ccc(C5=CCCCC5)cc4)[C@@H]3C2)c1
active concentration: > 10 µM (inactive)

Cc1ccccc1-c1ccc([C@H]2[C@H](CO)N3C(=O)CN(S(C)(=O)=O)C[C@@H]23)cc1
active concentration: > 10 µM (inactive)

CN1CCN(C(=O)C[C@H]2CC[C@@H]3[C@H](COC[C@H](O)CN3C(=O)C3CC3)O2)CC1
active concentration: > 10 µM (inactive)

CC(C)NC(=O)N1C[C@@H]2[C@H](c3ccccc31)[C@@H](CO)N2Cc1ccccn1
active concentration: < 10 µM
